Data set [1] in a line: Solubilisation measurements of celecoxib in vehicles (oils, surfactants, co-solvents). It counts as physicochemical. The method, then:
Solubilisation studies were performed using a wide range of vehicles consisting of oils, surfactants and co-solvents. The vehicles used were Kolliphor® HS 15, Transcutol® P, Kolliphor® EL, Miglyol® 810N, Tween® 20 and Capryol® 90.
Celecoxib was added to measured quantities of the vehicles (excipients) in glass vials. These mixtures were stirred at room temperature on a magnetic stirrer; as an exception, the solubilisation measurements were performed at elevated temperatures in respect of vehicles which were solid at room temperature.

Data set [2] deals with HT29 cells. Description: MTT cell proliferation assay. The note with it: Homo sapiens, HT-29, 72 hrs, tested at 20, 30, 50 and 100 μM, read-out: IC50 dose (dose required to reduce cell proliferation by 50% compared to medium). In kind it is cell-based. The method, then: HT29 is a COX-2 positive human colorectal adenocarcinoma cell line and is in particular a model for adenocarcinoma, especially COX-2 positive adenocarcinoma. […] The cells were grown in a humidified atmosphere containing 5% CO2. Cell proliferation was measured using the VybrantMTT assay kit according to the manufacturer's guidelines. HT29 cells (10,000 cells) cells were plated in 100 μl of complete McCoy's 5A media in 96-well tissue culture dishes. […] In the case of celecoxib dissolved in DMSO, the celecoxib was dissolved overnight in DMSO before treatment. Two control groups were employed, one which involved no treatment (referred to as media) and the other which involved treatment with DMSO alone. […] The absorbance (A) was determined in a BioRad 680 microplate reader (BioRad, USA) at 550 nm.
For orientation: Formazan colour is commonly taken as a measure of viable cells.

The subject of data set [3] is HT29 cells. Kind of data set: Annexin V-PE / 7-AAD cell viability and apoptosis assay by flow cytometry. In kind it is cell-based, human. The procedure: HT29 is a COX-2 positive human colorectal adenocarcinoma cell line and is in particular a model for adenocarcinoma, especially COX-2 positive adenocarcinoma. The HT29 cell line was grown in McCoy's 5A modified medium supplemented with 1.5 mM L-glutamine, 10% FBS (fetal bovine serum) and 1% penicillin/streptomycin. The cells were grown in a humidified atmosphere containing 5% CO2.
Two control groups were employed, one which involved no treatment (referred to as media) and the other which involved treatment with DMSO alone. Cell viability and the onset of apoptosis was monitored using an Annexin-PE Apoptosis Detection Kit which contains recombinant Annexin V-fluorochrome phycoerythrin (PE) conjugate and the vital dye 7-amino-actinomycin (7-AAD) followed by flow cytometry on a FACSCalibur system using CellQest software (BD Biosciences, USA) . Data for at least 10,000 cells were collected for each analysis made and two-dimensional plots of 7-AAD versus PE were generated.
Background: A flow cytometer gives signals particle by particle.

For data set [4] the following is noted: cited from earlier work.
For data set [5] the following is noted: at 20° C.; cited from earlier work.
Data set [6] in a line: Precipitation of drug during minibead manufacture (surfactant phase in contact with gelatin phase). In kind it is physicochemical. The conditions noted are these: inhibitor added to celecoxib minibead formulation. The method, then: Minibeads containing celecoxib were prepared via a manual drop in oil method. The minibeads were manufactured by combining the surfactant phase (drug dissolved in vehicles) with a gelatin phase (mixture of gelatin, water, sorbitol and SDS) and mixing at approximately 60° C. Droplets of the mixture were then allowed to fall into a bath of cooling/hardening oil (Miglyol® 810N) at approximately 10° C. As the mixture droplets fall in air, coacervation occurs to form a coacervate suspension in which droplets of the surfactant phase are surrounded by a layer of gelatine (multiple coacervates exist within a single minibead). The dropping of the minibead into a cooling/hardening bath allows the minibeads to harden before being recovered for drying. […] A range of oils was investigated (olive oil, mineral oil and other medium chain triglycerides) for use as the cooling/hardening oil in the production of minibeads. […] The minibeads were then air dried for 24 hr (over this time the water in the formulation evaporated). In some of the formulations other components were added to the gelatin phase to prevent precipitation of drug during manufacturing and also to help maintain the minibead structure.
Similar formulations were produced in which the drug loading was increased to 9-10% w/w, however precipitation was evident for these formulations on contact of the surfactant phase with the gelatin phase. […]

The source of these data is patent US20150342893A1 (SIGMOID PHARMA LIMITED, priority 2014, published 2015).

A word on the Log P: it is a log measure of how a compound divides between an organic and an aqueous phase. Broadly, the aqueous solubility is how much of the substance goes into solution per volume.

With `Cc1ccc(-c2cc(C(F)(F)F)nn2-c2ccc(S(N)(=O)=O)cc2)cc1` [Celecoxib, celecoxib], in data set [1] (vehicle Capryol 90, range between transparent and cloudy), the “solubility of celecoxib in Capryol 90” value was 58 to 64 mg/g. The “solubility of celecoxib in 2-(2-ethoxyethoxy)ethanol (Transcutol P)” value in data set [1] (vehicle Transcutol P) lay within 345 to 390 mg/g. Also, the “maximum solubility of celecoxib in ethanol” value in data set [1] (vehicle ethanol) is 100 to 125 mg/g. Besides, the IC50 in the data set on HT29 cells [2] is above 100 µM. Also, in the data set on HT29 cells [3] (50 μM, 72 h), the “% of cells that died by necrosis” value was determined as 13.96±2.48%; the “combined % of cells that died via apoptosis (late and early apoptosis)” value is on record as 17.02±1.63%. Further, the viability at 50 µM in the data set on HT29 cells [3] (Homo sapiens, HT-29, 72 h, n=6, read-out: % viable cells) stood at 69 ± 2.71%. The log partition coefficient (Log P) in data set [4] is on record as 3.5. For the same molecule, the aqueous solubility in data set [5] is 3 to 7 µg/mL.
With `CC(=O)Oc1c(C)c(C)c2c(c1C)CCC(C)(CCC[C@H](C)CCC[C@H](C)CCCC(C)C)O2` (stereo partly shown) [Vitamin E Acetate, vitamin E acetate], the “Effect (potential precipitation inhibitor)” value in data set [6] is on record as “Effective precipitation inhibitor but negative”.
